# Source: PubChem BioAssay AID1918945 (Molecular Pharmacology Branch, DTP, NCI, 2023)
# “And” between values parts separate entries of the source, which are not always exact repeats. Equal entries are not always repeated.
# Test system: 883617-216-R-J1-PDC complex spheroid viability
# Assay: Anticancer human tumor 883617-216-R-J1-PDC patient-derived bladder carcinoma cell line growth inhibition
# Settings: for viability, T/C: stronger effect = lower value
# Outline: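 Complex spheroids of tumor cells with HUVEC and human MSCs, exposed to iadademstat combined with other agents. Each agent tested in half-log steps from near clinical Cmax (else 10 microM top), DMSO ≤0.25%.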
# [1] = curve of first compound, second compound 0.1 µM
# [2] = curve of first compound, second compound 0.316 µM
# [3] = curve of first compound, second compound 1 µM
# [4] = curve of first compound, second compound 3.16 µM
# [5] = curve of first compound, second compound 10 µM
# [6] = second compound 0.1 µM, first compound 0.0316 µM
# [7] = second compound 0.1 µM, first compound 0.1 µM
# [8] = second compound 0.316 µM, first compound 0.0316 µM
# [9] = second compound 0.316 µM, first compound 0.1 µM
# [10] = second compound 1 µM, first compound 0.0316 µM
# [11] = second compound 1 µM, first compound 0.1 µM
# [12] = second compound 3.16 µM, first compound 0.0316 µM
# [13] = second compound 3.16 µM, first compound 0.1 µM
# [14] = second compound 10 µM, first compound 0.0316 µM
# [15] = second compound 10 µM, first compound 0.1 µM
# 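Note: exposure lasted seven days after three days of spheroid growth.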
# 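Throughout, for viability, T/C: 100% = DMSO vehicle control luminescence.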
compound,measurement,setting,value
CC(C)CC(NC(=O)C(Cc1ccccc1)NC(=O)c1cnccn1)B(O)O (stereo unspecified) + NC1CCC(NC2CC2c2ccccc2)CC1,IC50,[1],1.85 nM
same,IC50,[2],1.79 nM
same,IC50,[3],1.59 nM
same,IC50,[4],1.62 nM
same,IC50,[5],1.76 nM
same,"viability, T/C","second compound 0.1 µM, first compound 0.000316 µM",105%
same,"viability, T/C","second compound 0.1 µM, first compound 0.001 µM",92.2%
same,"viability, T/C","second compound 0.1 µM, first compound 0.00316 µM",13.2%
same,"viability, T/C","second compound 0.1 µM, first compound 0.01 µM",3.29%
same,"viability, T/C",[6],2.15%
same,"viability, T/C",[7],0.25%
same,"viability, T/C","second compound 0.316 µM, first compound 0.000316 µM",112%
same,"viability, T/C","second compound 0.316 µM, first compound 0.001 µM",91.8%
same,"viability, T/C","second compound 0.316 µM, first compound 0.00316 µM",8.98%
same,"viability, T/C","second compound 0.316 µM, first compound 0.01 µM",1.9%
same,"viability, T/C",[8],0.32%
same,"viability, T/C",[9],0.82%
same,"viability, T/C","second compound 1 µM, first compound 0.000316 µM",108%
same,"viability, T/C","second compound 1 µM, first compound 0.001 µM",74.6%
same,"viability, T/C","second compound 1 µM, first compound 0.00316 µM",13.2%
same,"viability, T/C","second compound 1 µM, first compound 0.01 µM",1.21%
same,"viability, T/C",[10],0.94%
same,"viability, T/C",[11],0.72%
same,"viability, T/C","second compound 3.16 µM, first compound 0.000316 µM",112%
same,"viability, T/C","second compound 3.16 µM, first compound 0.001 µM",79.6%
same,"viability, T/C","second compound 3.16 µM, first compound 0.00316 µM",9.32%
same,"viability, T/C","second compound 3.16 µM, first compound 0.01 µM",1.86%
same,"viability, T/C",[12],1.46%
same,"viability, T/C",[13],0.83%
same,"viability, T/C","second compound 10 µM, first compound 0.000316 µM",101%
same,"viability, T/C","second compound 10 µM, first compound 0.001 µM",92.5%
same,"viability, T/C","second compound 10 µM, first compound 0.00316 µM",6.31%
same,"viability, T/C","second compound 10 µM, first compound 0.01 µM",0.91%
same,"viability, T/C",[14],0.79%
same,"viability, T/C",[15],0.32%
COc1ccc([C@@H](O)c2cc(-c3ncnc4cc(N5CCOCC5)ccc34)c(F)cc2Cl)nn1 + NC1CCC(NC2CC2c2ccccc2)CC1,IC50,[1],1200 nM
same,IC50,[2],1370 nM
same,IC50,[3],1320 nM
same,IC50,[4],1080 nM
same,IC50,[5],1560 nM
same,"viability, T/C",[6],97.8%
same,"viability, T/C",[7],90.3%
same,"viability, T/C","second compound 0.1 µM, first compound 0.316 µM",72%
same,"viability, T/C","second compound 0.1 µM, first compound 1 µM",50.2%
same,"viability, T/C","second compound 0.1 µM, first compound 3.16 µM",38.2%
same,"viability, T/C","second compound 0.1 µM, first compound 10 µM",20.7%
same,"viability, T/C",[8],103%
same,"viability, T/C",[9],90.8%
same,"viability, T/C","second compound 0.316 µM, first compound 0.316 µM",73.6%
same,"viability, T/C","second compound 0.316 µM, first compound 1 µM",53.2%
same,"viability, T/C","second compound 0.316 µM, first compound 3.16 µM",38.5%
same,"viability, T/C","second compound 0.316 µM, first compound 10 µM",19.2%
same,"viability, T/C",[10],101%
same,"viability, T/C",[11],91.3%
same,"viability, T/C","second compound 1 µM, first compound 0.316 µM",83.2%
same,"viability, T/C","second compound 1 µM, first compound 1 µM",52.7%
same,"viability, T/C","second compound 1 µM, first compound 3.16 µM",35.1%
same,"viability, T/C","second compound 1 µM, first compound 10 µM",21%
same,"viability, T/C",[12],97.6%
same,"viability, T/C",[13],93.2%
same,"viability, T/C","second compound 3.16 µM, first compound 0.316 µM",73.7%
same,"viability, T/C","second compound 3.16 µM, first compound 1 µM",51.7%
same,"viability, T/C","second compound 3.16 µM, first compound 3.16 µM",32.1%
same,"viability, T/C","second compound 3.16 µM, first compound 10 µM",21.9%
same,"viability, T/C",[14],100%
same,"viability, T/C",[15],93.2%
same,"viability, T/C","second compound 10 µM, first compound 0.316 µM",70.2%
same,"viability, T/C","second compound 10 µM, first compound 1 µM",56.3%
same,"viability, T/C","second compound 10 µM, first compound 3.16 µM",41.4%
same,"viability, T/C","second compound 10 µM, first compound 10 µM",19.8%
NC1CCC(NC2CC2c2ccccc2)CC1 (stereo unspecified),"viability, T/C",compound 0.1 µM,103% [middle of 25 runs]
same,"viability, T/C",compound 0.316 µM,107% and 112%
same,"viability, T/C",compound 1 µM,104% [middle of 25 runs]
same,"viability, T/C",compound 3.16 µM,105% [middle of 25 runs]
same,"viability, T/C",compound 10 µM,107% [middle of 23 runs]
same,IC50,"compound alone, run of 11/29/2021",> 10000 nM
